Experimental data reported in US6096314A, “Peptides and pharmaceutical compositions comprising them” (Yeda Research and Development Co. Ltd., priority 1994, dated 2000).

Experiments:
anti-idiotypic T cells = assay: Treatment with p277 in IFA, proliferation of spleen cells to C9VDJ peptide (FIG. 9); assay type: in vivo; details: NOD female mice, 12 weeks old, treated in IFA subcutaneously; 2 or 5 weeks after treatment
Procedure: FIGS. 4A and B Spontaneous anti-idiotypic responses in naive female (FIG. 4A) and male (FIG. 4B) NOD mice. T cell responses to hsp60 (idiotype) and to the C9 clone (anti-idiotype) were measured in naive female and male NOD mice. Ten female and 10 male NOD mice were sacrificed at 4, 6, 8, 10, 13 and 21 week of age and their spleens were taken for a T cell proliferative assay. Spleen cells were tested at 200,000 cells/0.2 cc in microtiter wells for proliferative responses to either human hsp60 (5 μg/ml) or the C9 clone (20,000 cells/well irradiated at 5000 rad). The a proliferative response was measured by adding 3H-thymidine to the culture for the last 16 h of a 72 h stimulation. The incorporated 3H-thymidine was measured on a β-counter and the stimulation index (SI) was calculated as cpm incorporation in the presence of antigen/cpm incorporation in the absence of antigen. Individual mice were tested separately and the mean±SD for each time point was calculated.
NOD female mice, 12 weeks old, were immunized with p277 or p278 in IFA, […] per mouse subcutaneously, or left untreated 10 mice per group. At 2 or 5 weeks after treatment 5 mice of each group were sacrificed their spleens removed and tested individually in a proliferation assay to C9VDJ peptide 5 μg/ml, as described in FIG. 4.

NOD mice = details: references (3), (4); cited from earlier work

In the case of VLGGGCALLRCIPALDSLTPANED [p277], the “Anti-C9 response (proliferation to C9VDJ peptide 5 μg/ml)” value (anti-idiotypic T cells) is given as “induces anti-C9 response” and the “Effect of vaccination on diabetes” value (NOD mice) is given as “prevent (3) or even reverse diabetes”.
